Values quoted from earlier work, collected in patent EP1541129A1, “Pharmaceutical effervescent formulation comprising amoxycillin and clavulanic acid” (Cimex AG, priority 2003, dated 2005).

Conditions: freely water-soluble

O=C(O)[C@H]1/C(=C/CO)O[C@@H]2CC(=O)N21 [Potassium clavulanate, potassium clavulanate]
solubility in water: about 1 part of water for 1 part of solute
